Patent US11040981B2, “Pyrrolotriazine compounds and methods of inhibiting TAM kinases” (Syros Pharmaceuticals, Inc., priority 2017, dated 2021)

Experiments:
MERTK = molecular target: T1, MERTK (Homo sapiens, UniProt Q12866); assay: TR-FRET kinase activity assay, MERTK; assay type: biochemical; details: for IC50: TR-FRET activity assay, ATP at Km, 60 minutes, read-out: Mer IC50
T1 sequence (Q12866 21-999): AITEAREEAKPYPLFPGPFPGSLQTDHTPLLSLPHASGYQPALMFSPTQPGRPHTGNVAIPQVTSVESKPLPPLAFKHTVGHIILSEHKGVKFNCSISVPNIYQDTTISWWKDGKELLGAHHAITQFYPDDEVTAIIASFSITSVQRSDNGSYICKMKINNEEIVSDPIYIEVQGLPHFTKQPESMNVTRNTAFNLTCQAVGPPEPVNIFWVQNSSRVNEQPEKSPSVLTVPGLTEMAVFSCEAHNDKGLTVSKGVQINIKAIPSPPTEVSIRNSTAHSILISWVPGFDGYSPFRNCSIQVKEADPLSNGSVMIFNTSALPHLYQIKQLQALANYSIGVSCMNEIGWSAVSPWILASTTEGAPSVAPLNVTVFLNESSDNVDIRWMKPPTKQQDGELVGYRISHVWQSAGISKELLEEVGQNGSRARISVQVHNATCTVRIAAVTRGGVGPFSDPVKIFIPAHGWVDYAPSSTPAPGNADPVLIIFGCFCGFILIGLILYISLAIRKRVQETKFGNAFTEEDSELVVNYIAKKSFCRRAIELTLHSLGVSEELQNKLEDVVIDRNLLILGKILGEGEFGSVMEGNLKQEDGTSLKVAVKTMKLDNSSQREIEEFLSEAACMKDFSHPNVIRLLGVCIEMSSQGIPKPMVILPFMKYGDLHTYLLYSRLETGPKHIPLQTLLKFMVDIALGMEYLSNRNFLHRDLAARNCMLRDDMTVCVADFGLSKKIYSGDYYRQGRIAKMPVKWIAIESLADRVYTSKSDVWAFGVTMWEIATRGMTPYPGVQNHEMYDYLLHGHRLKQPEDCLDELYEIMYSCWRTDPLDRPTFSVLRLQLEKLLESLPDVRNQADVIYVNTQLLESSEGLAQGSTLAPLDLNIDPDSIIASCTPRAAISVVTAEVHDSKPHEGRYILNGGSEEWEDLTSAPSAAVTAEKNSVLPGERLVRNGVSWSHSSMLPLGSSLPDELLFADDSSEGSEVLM
Method in brief: (§1)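 Compounds were tested against each kinase with ATP set at its own Km and a labelled tyrosine peptide substrate. Following one hour at room temperature in buffer containing 10 mM MgCl2 and 1 mM DTT, phosphorylated product was detected by Europium antibody TR-FRET after EDTA quench, and IC50 values were calculated.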

AXL = molecular target: T2, AXL (Homo sapiens, UniProt P30530); assay: TR-FRET kinase activity assay, AXL; assay type: biochemical; details: ATP at Km, 60 minutes
T2 sequence (P30530 26-894): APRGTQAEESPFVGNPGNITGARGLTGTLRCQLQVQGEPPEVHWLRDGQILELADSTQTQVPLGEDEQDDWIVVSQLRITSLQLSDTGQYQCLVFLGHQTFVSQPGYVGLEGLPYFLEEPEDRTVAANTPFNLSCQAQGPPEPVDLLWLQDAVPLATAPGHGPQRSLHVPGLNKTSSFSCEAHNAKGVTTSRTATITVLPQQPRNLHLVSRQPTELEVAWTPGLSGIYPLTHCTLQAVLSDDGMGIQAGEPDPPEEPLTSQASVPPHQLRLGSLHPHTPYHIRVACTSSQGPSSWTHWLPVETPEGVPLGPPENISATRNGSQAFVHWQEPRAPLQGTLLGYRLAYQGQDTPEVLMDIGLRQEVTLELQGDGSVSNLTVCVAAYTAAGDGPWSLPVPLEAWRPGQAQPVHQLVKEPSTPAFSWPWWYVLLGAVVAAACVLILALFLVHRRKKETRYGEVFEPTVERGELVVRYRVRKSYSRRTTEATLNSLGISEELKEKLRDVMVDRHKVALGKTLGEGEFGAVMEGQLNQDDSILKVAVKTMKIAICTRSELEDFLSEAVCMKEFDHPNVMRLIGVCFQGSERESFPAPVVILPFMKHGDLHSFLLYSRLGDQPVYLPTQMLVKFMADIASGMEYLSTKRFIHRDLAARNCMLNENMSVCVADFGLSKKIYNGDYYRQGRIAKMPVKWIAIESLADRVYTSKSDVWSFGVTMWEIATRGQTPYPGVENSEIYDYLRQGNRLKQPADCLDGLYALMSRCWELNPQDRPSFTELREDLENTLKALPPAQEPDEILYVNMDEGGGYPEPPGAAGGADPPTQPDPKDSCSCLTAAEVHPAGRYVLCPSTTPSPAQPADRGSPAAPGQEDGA
Method in brief: as §1

[1] = ratio of Mer to FLT3: FLT3 IC50/Mer IC50
[2] = ratio calculated as FLT3 IC50/Mer IC50

Row | IC50 (MERTK) [nM] | FLT3/Mer ratio (FLT3 IC50/Mer IC50) (MERTK; [1]) | IC50 (AXL) [nM] | FLT3/Mer ratio (FLT3 IC50/Mer IC50) (MERTK; [2]) | Structure (SMILES)
1 | ≤ 100 | – | ≤ 100 | +++ (“+++” represents a ratio of >100) | COC[C@H](C)Nc1ncc2c(-c3ccnc(NC4CCOC4)c3)cc([C@H]3CC[C@H](O)CC3)n2n1 (stereo partly drawn) [Compound 418]
2 | ≤ 100 | – | ≤ 100 | +++ (“+++” represents a ratio of >100) | CNC(=O)c1ncc(-c2cc([C@H]3CC[C@H](O)CC3)n3nc(N[C@@H](C)COC(F)F)ncc23)cn1 [Compound 407]
3 | ≤ 100 | – | ≤ 100 | +++ (“+++” represents a ratio of >100) | COC[C@H](C)Nc1ncc2c(-c3cnn(C4(C(=O)NC(C)C)CC4)c3)cc([C@H]3CC[C@H](O)CC3)n2n1 [Compound 415]
4 | ≤ 100 | – | ≤ 100 | +++ (“+++” represents a ratio of >100) | COC[C@H](C)Nc1ncc2c(-c3cnn([C@H]4CCN(C(C)=O)C4)c3)cc([C@H]3CC[C@H](O)CC3)n2n1 [Compound 397]
5 | ≤ 100 | – | ≤ 100 | +++ (“+++” represents a ratio of >100) | CC1(Nc2ncc3c(-c4cnn(C5COC5)c4)cc(C4CCC(O)CC4)n3n2)COC1 (stereo not drawn) [Compound 399]
6 | ≤ 100 | – | ≤ 100 | +++ (“+++” represents a ratio of >100) | COC[C@H](C)Nc1ncc2c(-c3ccnc(N[C@@H]4CCOC4)c3)cc([C@H]3CC[C@H](O)CC3)n2n1 [Compound 416]
7 | ≤ 100 | – | ≤ 100 | +++ (“+++” represents a ratio of >100) | COC[C@H](C)Nc1ncc2c(-c3ccnc(O[C@H]4CCCN(C)C4)c3)cc([C@H]3CC[C@H](O)CC3)n2n1 [Compound 403]

More lines, now with the values behind:

Row | Structure (SMILES) | IC50 (MERTK) [nM] | FLT3/Mer ratio (FLT3 IC50/Mer IC50) (MERTK; [1]) | IC50 (AXL) [nM] | FLT3/Mer ratio (FLT3 IC50/Mer IC50) (MERTK; [2])
8 | C[C@H](CN(C)C)Nc1ncc2c(-c3cnn(C4COC4)c3)cc([C@H]3CC[C@H](O)CC3)n2n1 [Compound 388] | 100 to 1000 | ++ (“++” represents a ratio of between 10 and 100) | 1000 to 10000 | –
9 | CNOc1cc(-c2cc([C@H]3CC[C@H](O)CC3)n3nc(N[C@@H](C)COC)ncc23)ccn1 [Compound 361] | ≤ 100 | +++ (“+++” represents a ratio of >100) | ≤ 100 | –
10 | COC[C@H](C)Nc1ncc2c(-c3cnn(C4(C(=O)N5CCCC5)CC4)c3)cc([C@H]3CC[C@H](O)CC3)n2n1 [Compound 408] | ≤ 100 | – | ≤ 100 | +++ (“+++” represents a ratio of >100)
11 | COC[C@H](C)Nc1ncc2c(-c3cnn(CC4CCOCC4)c3)cc([C@H]3CC[C@H](O)CC3)n2n1 [Compound 392] | ≤ 100 | +++ (“+++” represents a ratio of >100) | ≤ 100 | –
12 | CC(=O)N1CCN(Cc2ccc(-c3cc([C@H]4CC[C@H](O)CC4)n4nc(N[C@@H](C)COC(F)F)ncc34)cc2)CC1 [Compound 413] | ≤ 100 | – | ≤ 100 | ++ (“++” represents a ratio of between 10 and 100)
13 | COC[C@H](C)Nc1ncc2c(-c3cnn(C[C@@H]4CCC(=O)N4)c3)cc([C@H]3CC[C@H](O)CC3)n2n1 [Compound 368] | ≤ 100 | +++ (“+++” represents a ratio of >100) | ≤ 100 | –
14 | CNS(=O)(=O)c1ccc(-c2cc([C@H]3CC[C@H](O)CC3)n3nc(N[C@@H](C)CC(F)(F)F)ncc23)cn1 [Compound 360] | ≤ 100 | ++ (“++” represents a ratio of between 10 and 100) | ≤ 100 | –
15 | COC[C@H](C)Nc1ncc2c(-c3cnn(CCC#N)c3)cc([C@H]3CC[C@](C)(O)CC3)n2n1 [Compound 382] | ≤ 100 | +++ (“+++” represents a ratio of >100) | ≤ 100 | –
16 | C[C@@H](CN(C)C)Nc1ncc2c(-c3cnn(C4COC4)c3)cc([C@H]3CC[C@H](O)CC3)n2n1 [Compound 387] | 100 to 1000 | ++ (“++” represents a ratio of between 10 and 100) | 1000 to 10000 | –
17 | COC[C@H](C)Nc1ncc2c([C@@H]3CCCN(c4ccnc(C)n4)C3)cc([C@H]3CC[C@H](O)CC3)n2n1 [Compound 378] | ≤ 100 | +++ (“+++” represents a ratio of >100) | 1000 to 10000 | –
18 | CNC(=O)c1ncc(-c2cc([C@H]3CC[C@H](O)CC3)n3nc(N[C@@H](C)CC(F)(F)F)ncc23)cn1 [Compound 347] | ≤ 100 | +++ (“+++” represents a ratio of >100) | ≤ 100 | –
19 | COC[C@H](C)Nc1ncc2c([C@@H]3CCN(S(C)(=O)=O)C3)cc([C@H]3CC[C@H](O)CC3)n2n1 [Compound 375] | ≤ 100 | +++ (“+++” represents a ratio of >100) | 100 to 1000 | –
20 | COC[C@H](C)Nc1ncc2c(-c3ccnc(O[C@H]4CCN(C)C4)c3)cc([C@H]3CC[C@H](O)CC3)n2n1 [Compound 400] | ≤ 100 | – | ≤ 100 | +++ (“+++” represents a ratio of >100)
21 | COC[C@H](C)Nc1ncc2c(-c3ccnc(O[C@H]4CCCNC4)c3)cc([C@H]3CC[C@H](O)CC3)n2n1 [Compound 389] | ≤ 100 | +++ (“+++” represents a ratio of >100) | ≤ 100 | –
22 | CCCCC[C@H](C)Nc1ncc2c(C3=CCC(C(=O)O)CC3)cc([C@H]3CC[C@H](O)CC3)n2n1 (stereo partly drawn) [Compound 122, 4-(2-((S)-heptan-2-ylamino)-7-((trans)-4-hydroxycyclohexyl)pyrrolo[2,1-f][1,2,4]triazin-5-yl)cyclohex-3-enecarboxylic acid] | ≤ 100 | +++ (“+++” represents a ratio of >100) | ≤ 100 | –
23 | C[C@@H](CC(F)F)Nc1ncc2c(-c3cnn(C4COC4)c3)cc([C@H]3CC[C@H](O)CC3)n2n1 [Compound 351] | ≤ 100 | ++ (“++” represents a ratio of between 10 and 100) | ≤ 100 | –
24 | COC[C@H](C)Nc1ncc2c(-c3ccnc(O[C@@H]4CCN(C)C4)c3)cc([C@H]3CC[C@H](O)CC3)n2n1 [Compound 402] | ≤ 100 | – | ≤ 100 | +++ (“+++” represents a ratio of >100)
25 | CC(COC(F)F)Nc1ncc2c(-c3cnn(C(C)(C)C(=O)N4CCOCC4)c3)cc(C3CCC(O)CC3)n2n1 (stereo not drawn) [Compound 393] | ≤ 100 | +++ (“+++” represents a ratio of >100) | ≤ 100 | –
26 | C[C@@H](CC(F)(F)F)Nc1ncc2c(C3=CCN(C(=O)OC(C)(C)C)CC3)cc([C@H]3CC[C@H](O)CC3)n2n1 [Compound 412] | ≤ 100 | – | ≤ 100 | +++ (“+++” represents a ratio of >100)
27 | CNC(=O)c1cc(-c2cc([C@H]3CC[C@H](O)CC3)n3nc(N[C@@H](C)CC(F)(F)F)ncc23)cc(C)n1 [Compound 353] | ≤ 100 | +++ (“+++” represents a ratio of >100) | 100 to 1000 | –
